Assay: Control of loss of volatile components: amounts in the AI patch after storage, by gas chromatography
Assay type: physicochemical
Settings: 12 wks, device with in situ seal
Method: A transdermal hormone delivery device was prepared comprising an internal backing layer, an AI layer, and a release liner. […] The device also comprised an overlay comprising a polyurethane […] backing, which is able to absorb large amounts of the volatile excipients, DMSO and ethyl lactate, an acrylic PSA coated onto the polyurethane foam, and a PIB PSA coated on top of the acrylic PSA. […] The release liner was a Mylar polyester film coated with a fluoropolymer release coating. […] The devices were placed in a 25° C. or 40° C. oven. After 6 weeks and 12 weeks, devices were removed from the oven and the active section of each device was separated from the overlay. […] (12 weeks exposure to 40° C. is intended to simulate 18 months exposure to room temperature (25° C.)).

- Amount in the AI patch (40° C.): 9.20 wt %
- Amount in the AI patch (room temp): 9.10 wt %
Compound: CCCCCCCCCCCCOC(=O)C(C)O (centres unmarked) [Lauryl Lactate, lauryl lactate]

From patent US8747888B2, “Dermal delivery device with in situ seal” (Agile Therapeutics, Inc., priority 2007, dated 2014)
